Data taken from the kinase profiling compilation of Christmann-Franck et al. (2016).

Each molecule was assayed against SGK1 (human) (UniProt O00141) (assay: Flashplate).
Sequence of SGK1 (human) (O00141 whole entry, looked up): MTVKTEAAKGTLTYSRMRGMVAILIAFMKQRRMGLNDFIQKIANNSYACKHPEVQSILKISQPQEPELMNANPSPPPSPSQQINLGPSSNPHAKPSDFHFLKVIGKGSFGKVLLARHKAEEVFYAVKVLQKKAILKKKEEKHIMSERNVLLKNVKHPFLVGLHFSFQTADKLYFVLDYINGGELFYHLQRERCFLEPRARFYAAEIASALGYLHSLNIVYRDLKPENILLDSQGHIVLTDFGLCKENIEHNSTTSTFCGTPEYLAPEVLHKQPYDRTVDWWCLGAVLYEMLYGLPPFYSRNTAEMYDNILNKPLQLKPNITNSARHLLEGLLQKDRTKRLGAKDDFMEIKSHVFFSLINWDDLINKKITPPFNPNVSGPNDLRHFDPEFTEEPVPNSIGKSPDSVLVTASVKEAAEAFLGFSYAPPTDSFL
With `Cc1cccc(NC(=O)Nc2ccc(-c3csc4nc(N)nc(N)c34)cc2)c1` the Ki was over 10 µM. `O=C(c1cc(Cc2n[nH]c(=O)c3c2CCCC3)ccc1F)N1CCN(c2ncccn2)CC1` gave a Ki of over 10 µM. In the case of `CCS(=O)(=O)c1ccc(-c2cncc3sc(C(N)=O)cc23)cc1`, the Ki is reported as 3.98 µM. In the case of `O=C(Cc1ccccc1)Nc1cccc(-c2nc3sccn3c2-c2ccnc(Nc3cccc(N4CCOCC4)c3)n2)c1`, the Ki is reported as over 10 µM. In the case of `CCOc1nc(C(=O)NCc2ccncc2)cc(N)c1C#N`, the Ki is reported as over 10 µM. `Cc1c(Cl)c(N2CCC(CN)C2)nc2[nH]cc(C(=O)O)c(=O)c12` (centres undefined) showed a Ki of over 10 µM. With `O=C(O)c1ccccc1Nc1ccnc(Nc2ccc3cn[nH]c3c2)n1` the Ki was 0.2 µM. For `CC(C)Oc1ccc(-c2noc(-c3ccc(N[C@H]4CC[C@@H](C(=O)O)C4)cc3)n2)cc1Cl`, the Ki was over 10 µM. Molecule `O=c1c(NCc2ccccc2F)c(Nc2ccncc2)c1=O` has a Ki of 0.794 µM. `CC(C)(CO)c1nnc2ccc(-c3c(-c4ccc(F)cc4F)nc4occn34)nn12` showed a Ki of over 10 µM. Work on `OCC[C@@H](Nc1nc2ccc(-c3ccncc3)cc2s1)c1ccccc1` yielded a Ki of 1 µM. Molecule `O=C(NNC(=S)Nc1ccc(F)cc1)C(O)(c1ccccc1)c1ccccc1` has a Ki of over 10 µM. Molecule `COc1ccc2c(NC(=O)Nc3cccc(Br)n3)ccnc2c1` has a Ki of over 10 µM. Work on `CCc1nc2c(c3cc(OC)c(OC)cc13)C(=O)NC2=O` yielded a Ki of over 10 µM. Work on `CC(C)(C)C(=O)Oc1ccc2c(c1)nc(NC(=O)c1cccc([N+](=O)[O-])c1)n2CCCO` yielded a Ki of over 10 µM. For `Nc1ncc(/C=C/C(=O)NCCCn2ccnc2)c2scc(-c3ccc(Br)cc3)c12`, the Ki was over 10 µM. For `CCCC(=O)Nc1n[nH]c2ccc(-c3cccc(F)c3F)cc12`, the Ki was over 10 µM. With `CN1CC[C@@H](c2c(O)cc(O)c3c(=O)cc(-c4ccccc4Cl)oc23)[C@@H](O)C1` the Ki was over 10 µM. With `N[C@H](COc1cncc(-c2cc3ccncc3s2)c1)Cc1c[nH]c2ccccc12` the Ki was 0.0501 µM. `N#Cc1ccc2[nH]c(O)c(-c3ccc(CN4CCOCC4)cn3)c2c1` was tested, and the Ki was 3.16 µM. `COc1cccc([C@H](C)NC(=O)c2ccc(-c3ccncc3)c(C)c2)c1` gave a Ki of 0.316 µM. `Cn1cc(-c2ccncn2)c(-c2ccc(F)cc2)n1` showed a Ki of over 10 µM. `Fc1cnc(Nc2ccccc2)nc1Nc1ccccc1` showed a Ki of over 10 µM. Molecule `COCC(C)(C)CNc1nccc(-c2c(-c3ccc(F)cc3)nc3c(C)nccn23)n1` has a Ki of over 10 µM. `Cc1cccc(NC(=O)Nc2ccc(-c3coc4ncnc(N)c34)cc2)c1` was tested, and the Ki was 2 µM. `Nc1ncnc2c1c(-c1cccc(OCc3ccccc3)c1)cn2[C@H]1C[C@H](CN2CCCC2)C1` was tested, and the Ki was over 10 µM. `Cc1ccccc1NC(=O)Nc1ccc(NC(=O)c2csc3ncnc(N)c23)cc1` was tested, and the Ki was over 10 µM. `OCC(CO)Nc1ncnc2[nH]cc(-c3ccccc3)c12` was tested, and the Ki was 7.94 µM. In the case of `COc1ccc(CNC(=O)Nc2ncc([N+](=O)[O-])s2)cc1`, the Ki is reported as over 10 µM. For `COc1cc2ncn(-c3cc(OCc4ccccc4C(F)(F)F)c(C(=O)O)s3)c2cc1OC`, the Ki was over 10 µM. Work on `Cc1[nH]c(/C=C2\C(=O)Nc3ccccc32)c(C)c1CCC(=O)O` yielded a Ki of 5.01 µM. With `CN(C)S(=O)(=O)c1ccccc1-c1ccc2c(c1)Nc1ccccc1NC2=O` the Ki was over 10 µM. In the case of `N[C@H]1CC[C@H](Nc2nccc(-c3c[nH]c4ncccc34)n2)CC1`, the Ki is reported as 0.0501 µM. In the case of `Cc1ccc(NC(=O)Nc2ccc(-c3cccc4c3CNC4=O)cc2)cc1C`, the Ki is reported as over 10 µM. Molecule `CC(C)(CO)CNc1nccc(-c2c(-c3ccc(F)cc3)nc3c(CCN)nccn23)n1` has a Ki of over 10 µM. With `Nc1ncc(-c2cnn(CCO)c2)c2scc(-c3ccc(NC(=O)Nc4cccc(F)c4)cc3)c12` the Ki was 2.51 µM. With `NC(=O)c1cccc(-c2cnc3[nH]cc(-c4ccccc4)c3c2)c1` the Ki was 0.126 µM. With `O=C1Nc2ccc3ncsc3c2/C1=C/Nc1ccc(S(=O)(=O)Nc2ccccn2)cc1` the Ki was 0.0158 µM. `Cc1cccc(Nc2nccc(Nc3c(N[C@H](C)C(C)(C)C)c(=O)c3=O)n2)c1` showed a Ki of 1 µM. `COc1cccc([C@@H](C)NC(=O)c2ccc(-c3ccncc3)cc2NCCCN)c1` showed a Ki of 0.398 µM. `Cc1nn(-c2ccccc2)c2c1c(=O)c1cc(Cl)ccc1n2O` gave a Ki of over 10 µM. For `Cc1nsc2[nH]cc(C(=O)O)c(=O)c12`, the Ki was over 10 µM. In the case of `Cc1n[nH]c2cccc(-c3ccc(NC(=O)Nc4cccc(C(F)(F)F)c4)cc3)c12`, the Ki is reported as over 10 µM. `Cc1nccn2c(-c3ccnc(NCC(C)(C)CO)n3)c(-c3ccc(F)cc3F)nc12` was tested, and the Ki was over 10 µM. Work on `CNCc1ccc(-c2[nH]c3cc(F)cc4c3c2CCNC4=O)cc1` yielded a Ki of over 10 µM. In the case of `Cc1n[nH]c2ccc(-c3cncc(OCC(CN)Cc4ccccc4)c3)cc12` (centres undefined), the Ki is reported as 1.26 µM. Work on `NC(=O)c1sc(-n2cnc3ccccc32)cc1OCc1ccccc1C(F)(F)F` yielded a Ki of over 10 µM. `Cc1cc(C)c(/C=C2\C(=O)Nc3ccccc32)[nH]1` showed a Ki of 2 µM. In the case of `CCN(CC)CCNC(=O)/C=C/c1cnc(N)c2c(-c3ccc(NC(=O)Nc4cccc(C)c4)cc3)csc12`, the Ki is reported as 2 µM. In the case of `CC(C)Cn1c(N)nc2ccc(-c3c(-c4ccc(F)cc4)nc4sccn34)cc21`, the Ki is reported as over 10 µM. `CSc1ccccc1CNc1ncc([N+](=O)[O-])c(NCC2CCC(CN)CC2)n1` (centres undefined) showed a Ki of 6.31 µM. With `O=C1NCc2c1cccc2-c1ccc(Nc2nc3ccccc3[nH]2)cc1` the Ki was 5.01 µM. `Nc1nccc2scc(-c3ccc(NC(=O)Nc4cccc(Br)c4)cc3)c12` was tested, and the Ki was over 10 µM. In the case of `O=C(Nc1cnc2[nH]cc(-c3ccccc3)c2c1)c1c(F)cccc1F`, the Ki is reported as 0.631 µM. Molecule `O=C(Nc1cnccn1)Nc1ccnc2ccc(C(F)(F)F)cc12` has a Ki of 3.98 µM. Molecule `O=C(Nc1ccc2[nH]ncc2c1)c1cccc(F)c1` has a Ki of over 10 µM. With `CC(C)(O)c1nnc2ccc(-c3c(-c4ccc(F)cc4F)nc4n3CCC4)nn12` the Ki was over 10 µM. `COc1ccc(C(=O)Nc2nc3ccc(Cl)cc3s2)c(OC)c1` showed a Ki of over 10 µM. With `Cc1cccc(NC(=O)Nc2ccc3c(c2)CCc2sc4ncnc(N)c4c2-3)c1` the Ki was over 10 µM. `COc1ccc(C(=O)Nc2n[nH]c3ccc(-c4cn(Cc5ccccc5)nn4)cc23)cc1OC` showed a Ki of 1 µM. With `C[C@H](Nc1c(Nc2ccncc2)c(=O)c1=O)c1ccccc1` the Ki was over 10 µM. Molecule `COc1cc(CN2CCCCC2)c(Cl)cc1NC(=O)Nc1cnc(C#N)cn1` has a Ki of over 10 µM. For `O=c1[nH]c2sccc2c2nc(-c3ccncc3)nn12`, the Ki was over 10 µM. Molecule `NC(=O)c1cccc2[nH]c(-c3ccc(NC(=O)c4cccc(S(=O)(=O)N5CCOCC5)c4)cc3)nc12` has a Ki of over 10 µM. With `Fc1ccc(-c2ncn(CCN3CCOCC3)c2-c2ccc3[nH]ncc3c2)cc1` the Ki was over 10 µM. `Cn1c2ccccc2c2c3c(c4c5ccccc5n(CCC#N)c4c21)CNC3=O` showed a Ki of over 10 µM. For `Nc1n[nH]c2ccc(-c3nnn(Cc4ccccc4)c3I)cc12`, the Ki was 0.0631 µM. Work on `CCN(CCCOc1ccc2c(Nc3cc(CC(=O)Nc4cccc(F)c4)[nH]n3)ncnc2c1)CCOP(=O)(O)O` yielded a Ki of over 6.31 µM. For `c1ccc(-c2c[nH]c3ncnc(N4CCCCC4)c23)cc1`, the Ki was over 6.31 µM. `O=C(Cc1ccccc1Cl)Nc1ccc2cn[nH]c2c1` showed a Ki of over 10 µM. For `CNC(=O)c1ccccc1Nc1nc(Nc2ccc(N3CCOCC3)cc2OC)ncc1Cl`, the Ki was over 7.94 µM. For `CN(C)c1ccc(CNC(=O)c2cc3c(-c4ccccc4)n[nH]c3s2)cc1`, the Ki was 7.94 µM. In the case of `CO[C@@H](C(=O)N1Cc2[nH]nc(NC(=O)c3ccc(N4CCN(C)CC4)cc3)c2C1)c1ccccc1`, the Ki is reported as over 10 µM. Molecule `Cc1c(O)ccc2c1CCC/C2=N/NC(=O)Cc1cccc2ccccc12` has a Ki of 0.501 µM. Work on `CCCCNc1ccc2c3c(cccc13)C(=O)N(CCNCCO)C2=O` yielded a Ki of over 10 µM. Molecule `O=c1c(NCc2cccc(C(F)(F)F)c2)c(Nc2ccncc2)c1=O` has a Ki of 2 µM. With `Cn1nc(N)c2c(-c3ccc(NC(=O)Nc4cccc(C(F)(F)F)c4)cc3)cncc21` the Ki was over 10 µM. `Cc1cc(C)cc(NC(=O)Nc2ccc(NC(=O)c3csc4ncnc(N)c34)cc2)c1` showed a Ki of over 10 µM. In the case of `Cn1nc(C(F)(F)F)c2c(=O)c3cc(Cl)ccc3n(O)c21`, the Ki is reported as over 10 µM. `COc1cc2c(N3CCN(C(=O)Nc4ccc(OC(C)C)cc4)CC3)ncnc2cc1OCCCN1CCCCC1` was tested, and the Ki was over 7.94 µM. Work on `CCCCn1c(NC(=O)c2ccc(C#N)cc2)nc2cc(N(C)C(=O)C3CCCCC3)ccc21` yielded a Ki of over 10 µM. `CNC(=O)/C=C/c1cnc(N)c2c(-c3ccc4c(c3)OCO4)csc12` gave a Ki of over 10 µM. `CS(=O)c1ccc(-c2nc(-c3ccc(F)cc3)c(-c3ccncc3)[nH]2)cc1` (centres undefined) showed a Ki of over 7.94 µM. Molecule `COc1ccc(NC(=O)Nc2ccc(-c3cccc4onc(N)c34)cc2)cc1Cl` has a Ki of over 10 µM. For `O=C(Nc1ccc2cn[nH]c2c1)c1ccc(Cl)cc1`, the Ki was over 10 µM. With `O=S(=O)(c1cccc2cnccc12)N1CCCNCC1` the Ki was 6.31 µM. In the case of `Cc1cccc(-c2c(-c3ccncc3)nc(NC[C@@H](N)Cc3ccccc3)n(C)c2=O)c1`, the Ki is reported as over 10 µM. `c1ccc(CNc2nc3ccc(-c4ccncc4)cc3s2)cc1` showed a Ki of 2.51 µM. `O=c1[nH]cnc2c1oc1ccc(Cl)cc12` was tested, and the Ki was over 10 µM. Molecule `C[C@H](Nc1c(Nc2ccncc2)c(=O)c1=O)C1CCCCC1` has a Ki of over 10 µM. In the case of `NC[C@@H](NC(=O)c1ccc(-c2ccncc2)cc1)c1ccccc1`, the Ki is reported as 0.794 µM. Molecule `Cc1ccc(F)c(NC(=O)Nc2ccc(-c3nsc4ncnc(N)c34)cc2)c1` has a Ki of over 10 µM. `O=C1Cc2c([nH]c3ccc(Br)cc23)-c2ccccc2N1` was tested, and the Ki was over 10 µM. With `O=c1[nH]cc(I)c2nc(-c3cccc(Cl)c3)cn12` the Ki was 7.94 µM. With `CS(=O)(=O)Nc1cc2c(cc1Cl)NC(=O)Nc1cnc(C#N)c(n1)OCCCCCO2` the Ki was over 10 µM. In the case of `CC(C)N(C)C(=O)c1c(-c2ccc3[nH]ncc3c2)nnn1Cc1ccccc1`, the Ki is reported as 0.631 µM. `CCc1nc(-c2cccc(C)c2)c(-c2ccnc(NC(=O)c3ccccc3)c2)s1` gave a Ki of over 10 µM. `O=c1[nH]c2cc(Cl)cc(Cl)c2c(-c2cc(Cl)ccc2O)c1O` showed a Ki of over 10 µM. For `Cc1cc(C)cc(NC(=O)Nc2ccc(-c3cccc4c3CNC4=O)c(C(F)(F)F)c2)c1`, the Ki was over 10 µM. With `CC(C)c1nnc2ccc(-c3c(-c4ccc(F)cc4F)nc4n3CCC4)nn12` the Ki was over 10 µM. In the case of `COc1ccc(NC(=O)Nc2ccc(-c3csc4c(-c5cnn(CCO)c5)cnc(N)c34)cc2)cc1`, the Ki is reported as over 10 µM. Work on `O=C(Nc1nc2ccccc2n1CCCO)c1cccc([N+](=O)[O-])c1` yielded a Ki of over 10 µM. Work on `Nc1ncnc2sc(Br)c(-c3ccc(NC(=O)Cc4cccc(Cl)c4)cc3)c12` yielded a Ki of over 10 µM. Molecule `CN(C)C(=O)c1c(-c2ccc3[nH]ncc3c2)nnn1Cc1ccccc1` has a Ki of 2 µM. `CCc1c(-c2ccc(C(C)(C)O)cc2)[nH]c2nccnc12` showed a Ki of over 10 µM. For `CC(C)(C(N)=O)n1cc(-c2cnc(N)c3c(-c4ccc(NC(=O)Nc5cccc(F)c5)cc4)csc23)cn1`, the Ki was 3.16 µM. With `COc1cccc(/C=C2/S/C(=N\c3ccccc3)NC2=O)c1` the Ki was over 10 µM. In the case of `O=C(Nc1cnccn1)Nc1ccnc2c(C(F)(F)F)cccc12`, the Ki is reported as over 10 µM. `O=C(Nc1cnc2[nH]cc(-c3ccccc3)c2c1)c1ccc(Cl)cc1` was tested, and the Ki was 5.01 µM.
